The values that follow come from ChEMBL document CHEMBL1140951, “2-Acetylpyridine thiosemicarbazones are potent iron chelators and antiproliferative agents: redox activity, iron complexation and characterization of their antitumor activity” (J Med Chem, 2009).

Data set [1] has as its target Serotransferrin (Homo sapiens) (UniProt P02787). Put plainly: Induction of iron removal from 59Fe]transferrin assessed as iron release after 3 hrs relative to control. Further details: concentration or dose not given beside the values.
Data set [2] has as its system SK-N-MC. Put plainly: cells. The following applies: Homo sapiens, 72 h.
Description: Antiproliferative activity against human SK-N-MC cells after 72 hrs by MTT assay
Data set [3] can be described thus: Octanol-water partition coefficient, log P of the compound. The data set is classed as physicochemical.
Data set [4] concerns the target Serotransferrin (Homo sapiens) (UniProt P02787). Put plainly: Reduction of cellular iron uptake from 59Fe]transferrin in human SK-N-MC cells at 25 uM after 3 hrs relative to control. The data set is classed as cell-based. Further details: scale not given: the % may be the effect or the level left.
Data set [5] relates to SK-N-MC. Kind of data set: Induction of iron mobilization in 59Fe]transferrin labeled human SK-N-MC cells assessed as iron release at 25 uM after 3 hrs by gamma scintillation counter. The data set is classed as functional.
Data set [6] deals with SK-N-MC. Put plainly: Cytotoxicity against 59Fe]transferrin prelabeled human SK-N-MC cells assessed as cell viability at 25 uM after 3 hrs. The class given is cell-based.

Sequence of Serotransferrin (Homo sapiens) (P02787 whole entry): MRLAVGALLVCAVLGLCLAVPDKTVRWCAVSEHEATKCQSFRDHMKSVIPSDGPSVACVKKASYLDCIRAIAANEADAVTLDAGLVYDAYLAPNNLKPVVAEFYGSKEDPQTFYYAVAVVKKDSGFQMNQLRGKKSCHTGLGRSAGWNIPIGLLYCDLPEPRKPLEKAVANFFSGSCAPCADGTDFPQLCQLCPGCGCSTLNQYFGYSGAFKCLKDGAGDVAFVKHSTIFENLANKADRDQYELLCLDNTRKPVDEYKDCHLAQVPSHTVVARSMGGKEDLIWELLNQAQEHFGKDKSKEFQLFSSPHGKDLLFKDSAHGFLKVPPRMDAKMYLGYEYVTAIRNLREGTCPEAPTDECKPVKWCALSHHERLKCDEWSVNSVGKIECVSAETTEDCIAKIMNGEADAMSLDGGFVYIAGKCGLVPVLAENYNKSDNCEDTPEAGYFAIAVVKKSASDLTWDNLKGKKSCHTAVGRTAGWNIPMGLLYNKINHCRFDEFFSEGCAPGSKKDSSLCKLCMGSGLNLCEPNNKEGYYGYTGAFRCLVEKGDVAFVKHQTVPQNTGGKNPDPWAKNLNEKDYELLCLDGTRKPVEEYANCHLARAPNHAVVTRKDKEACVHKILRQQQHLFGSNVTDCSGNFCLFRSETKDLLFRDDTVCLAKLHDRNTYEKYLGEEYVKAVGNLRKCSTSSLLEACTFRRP

Consider `NC(=S)NN=C(c1ccccn1)c1ccccn1`, for which the Activity in data set [1] worked out at 1.6%.
Broadly, the IC50 is the point on the concentration scale where inhibition reaches its midpoint. One may read the logP as the decadic logarithm of the partition coefficient of the neutral form, usually between octanol and water. With `C/C(=N\NC(=S)N(C)C)c1ccccn1`, the midpoint of inhibition in the data set on SK-N-MC [2], the IC50, lay at 1 nM. The Activity was 2.7% in data set [1] and 4% in data set [4]. In data set [3], this molecule registered a lipophilicity (logP) of 1.8.
`O=C(N/N=C/c1c(O)ccc2ccccc12)c1ccncc1` returned an IC50 with SK-N-MC [2] of 500 nM.
Take `NC(=S)N/N=C(\c1ccccc1)c1ccccn1`: the Activity in data set [1] came out at 2%.
Still for that read-out and setting: the figure for `Cc1c(O)c(=O)ccn1C` is 20%.
Molecule `CC(=O)N(O)CCCCCNC(=O)CCC(=O)N(O)CCCCCNC(=O)CCC(=O)N(O)CCCCCN` [DEFEROXAMINE] registered an IC50 in the data set with SK-N-MC [2] of 7350 nM. Further, the values for the Activity (in data set [1]; in the data set with SK-N-MC [5]; in data set [4]) were 14.2%, 13% and 83%, respectively.
Take `CN(C)C(=S)NN=C(c1ccccn1)c1ccccn1`: the Activity in data set [1] came to 2.9%; in the data set on SK-N-MC [5], 27%; in data set [4], 7%.
Consider `CCNC(=S)N/N=C(\c1ccccc1)c1ccccn1`, for which the midpoint of inhibition in the data set on SK-N-MC [2], the IC50, lay at 3 nM. The Activity in data set [1] amounted to 3.1%.
As to `Cc1ncc(CO)c(/C=N/NC(=O)c2ccncc2)c1O` [PYRIDOXAL ISONICOTINOYL HYDRAZONE], the results for the Activity (in the data set with SK-N-MC [5]; in data set [4]) were 37% and 11%, respectively.
`CCNC(=S)N/N=C(\C)c1ccccn1` yielded an IC50 with SK-N-MC [2] of 2 nM. For the same molecule, the Activity in data set [1] turned out to be 2.1%; in data set [4], 4%. This molecule showed a logP in data set [3] of 1.52.
For `C=CCNC(=S)N/N=C(\C)c1ccccn1`, in the data set with SK-N-MC [2], the concentration for half-maximal inhibition (IC50) is 1 nM. Also, the Activity in data set [1] is 1.7%; in data set [4] it was 4%. Also, in data set [3], the log partition coefficient (logP) turned out to be 1.76.
The like results for `CNC(=S)N/N=C(\C)c1ccccn1` were, in that order, 11 nM, 1.8%, 4% and 2.7.
In the data set with SK-N-MC [2], `C/C(=N\NC(=S)Nc1ccccc1)c1ccccn1` displayed a 50% inhibitory concentration (IC50) of 1 nM. For the same molecule, the Activity result in the data set with SK-N-MC [6] was “Non-toxic”; in data set [1], 0.9%; in the data set with SK-N-MC [5] it was 33%; in data set [4] it was 35%. Besides, the logP in data set [3] was determined as 2.99.
For the molecule `C/C(=N\NC(N)=S)c1ccccn1`, in the data set on SK-N-MC [2], half-maximal inhibition (IC50) was put at 3530 nM. Further, the results for the Activity in data set [1] and in data set [4] were 1% and 4%, respectively. Further, the logP in data set [3] was 1.52.
